Molecular target: Human TrkA Protein (Homo sapiens (Human), UniProt P04629)
Assay: Evaluation of Binding Activity for Human TrkA Protein (TrkA LanthaScreen Eu Kinase Binding Assay)
Conditions: TrkA enzyme, Kinase Tracer 236, TR-FRET, 60 minutes at room temperature
In short: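 LanthaScreen Eu TR-FRET tracer-displacement binding with His-tagged human TrkA, Eu-anti-His antibody and Kinase Tracer 236. Incubation 60 min at room temperature. The 665/615 nm ratio (340 nm excitation) gave IC50, with solvent wells as 0% and no-TrkA wells as 100%.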

Chain of Human TrkA Protein (P04629 33-796): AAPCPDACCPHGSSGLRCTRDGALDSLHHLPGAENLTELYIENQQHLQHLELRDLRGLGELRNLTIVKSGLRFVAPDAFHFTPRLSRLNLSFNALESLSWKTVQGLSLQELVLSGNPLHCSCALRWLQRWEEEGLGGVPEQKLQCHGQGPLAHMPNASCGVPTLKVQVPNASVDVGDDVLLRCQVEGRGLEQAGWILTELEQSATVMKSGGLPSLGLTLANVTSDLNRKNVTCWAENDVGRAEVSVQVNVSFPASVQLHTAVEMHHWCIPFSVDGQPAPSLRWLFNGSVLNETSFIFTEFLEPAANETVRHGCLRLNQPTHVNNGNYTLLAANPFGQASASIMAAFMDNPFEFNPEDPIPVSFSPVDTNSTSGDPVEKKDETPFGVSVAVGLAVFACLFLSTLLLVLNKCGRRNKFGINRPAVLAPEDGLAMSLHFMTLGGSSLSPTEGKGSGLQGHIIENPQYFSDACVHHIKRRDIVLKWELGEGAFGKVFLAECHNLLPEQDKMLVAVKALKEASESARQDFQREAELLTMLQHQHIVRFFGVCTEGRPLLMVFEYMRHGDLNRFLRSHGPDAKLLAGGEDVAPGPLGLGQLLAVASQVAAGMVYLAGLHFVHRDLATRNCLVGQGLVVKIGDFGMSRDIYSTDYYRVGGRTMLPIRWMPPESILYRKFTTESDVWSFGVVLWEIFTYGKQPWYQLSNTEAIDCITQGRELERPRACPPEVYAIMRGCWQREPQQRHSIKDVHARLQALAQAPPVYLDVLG

## Cc1cc(NC(=O)N[C@@H]2c3cc(F)c(F)cc3C(C)(C)C[C@H]2O)c(-c2ccccc2)nc1CO (racemic) [Compound 43, rac-1-((1R,2R)-6,7-difluoro-2-hydroxy-4,4-dimethyl-1,2,3,4-tetrahydronaphthalen-1-yl)-3-(6-(hydroxymethyl)-5-methyl-2-phenylpyridin-3-yl)urea]
  IC50: ≤ 50 nM

## Cc1cc(NC(=O)N[C@@H]2c3cc(F)c(F)cc3C(C)(C)C[C@H]2O)c(-c2ccccc2)nc1-c1ccc(CO)cc1 (racemic) [Compound 45, rac-1-((1R,2R)-6,7-difluoro-2-hydroxy-4,4-dimethyl-1,2,3,4-tetrahydronaphthalen-1-yl)-3-(6-(4-(hydroxymethyl)phenyl)-5-methyl-2-phenylpyridin-3-yl)urea]
  IC50: ≤ 50 nM

## Cc1cc(NC(=O)N[C@@H]2c3cc(F)c(F)cc3C(C)(C)C[C@H]2O)c(-c2ccccc2)nc1-c1cccc(C#N)c1 (racemic) [Compound 47, rac-1-(6-(3-cyanophenyl)-5-methyl-2-phenylpyridin-3-yl)-3-((1R,2R)-6,7-difluoro-2-hydroxy-4,4-dimethyl-1,2,3,4-tetrahydronaphthalen-1-yl)urea]
  IC50: ≤ 50 nM

## Cc1ncc(-c2nc(C3CCOCC3)c(NC(=O)N[C@@H]3c4cc(F)c(F)cc4C(C)(C)C[C@H]3O)cc2C)cn1 (racemic) [Compound 59, rac-1-((1R,2R)-6,7-difluoro-2-hydroxy-4,4-dimethyl-1,2,3,4-tetrahydronaphthalen-1-yl)-3-(5-methyl-6-(2-methylpyrimidin-5-yl)-2-(tetrahydro-2H-pyran-4-yl)pyridin-3-yl) urea]
  IC50: 50 to 1000 nM

## Cc1cnc(-c2ccccc2)c(NC(=O)N[C@@H]2c3cc(F)c(F)cc3C(C)(C)C[C@H]2O)c1 (racemic) [Compound 37, rac-1-((1R,2R)-6,7-difluoro-2-hydroxy-4,4-dimethyl-1,2,3,4-tetrahydronaphthalen-1-yl)-3-(5-methyl-2-phenylpyridin-3-yl)urea]
  IC50: ≤ 50 nM

## Cc1cc(NC(=O)N[C@@H]2c3ccccc3C(C)(C)C[C@H]2O)c(-c2ccccc2)nc1C(N)=O (racemic) [Compound 24, rac-5-(3-((1R,2R)-2-hydroxy-4,4-dimethyl-1,2,3,4-tetrahydronaphthalen-1-yl)ureido)-3-methyl-6-phenylpicolinamide]
  IC50: ≤ 50 nM

## Cc1ncc(-c2nc(C3CCOCC3)c(NC(=O)N[C@@H]3c4ccccc4C(C)(C)C[C@H]3O)cc2C)cn1 (racemic) [Compound 28, rac-1-((1R,2R)-2-hydroxy-4,4-dimethyl-1,2,3,4-tetrahydronaphthalen-1-yl)-3-(5-methyl-6-(2-methylpyrimidin-5-yl)-2-(tetrahydro-2H-pyran-4-yl)pyridin-3-yl)urea]
  IC50: ≤ 50 nM

## Cc1cc(NC(=O)N[C@@H]2c3cc(F)c(F)cc3C(C)(C)C[C@H]2O)c(-c2ccccc2)nc1-c1cn[nH]c1 (racemic) [Compound 53, rac-1-((1R,2R)-6,7-difluoro-2-hydroxy-4,4-dimethyl-1,2,3,4-tetrahydronaphthalen-1-yl)-3-(5-methyl-2-phenyl-6-(1H-pyrazol-4-yl)pyridin-3-yl)urea]
  IC50: ≤ 50 nM
